Paper PMC7587597, “Synthesis and Biological Evaluation of 1,3-Dideazapurine-Like 7-Amino-5-Hydroxymethyl-Benzimidazole Ribonucleoside Analogues as Aminoacyl-tRNA Synthetase Inhibitors” (Molecules, 2020)

How the values were obtained:
TyrRS = biological target: T1, TyrRS (Escherichia coli, UniProt P0AGJ9); test: ([…] Å); radiolabel aminoacylation inhibition (Kiapp); type: biochemical
T1 construct: gene tyrS

SerRS [1] = biological target: T2, SerRS (Klebsiella pneumoniae, UniProt W9BNU9); test: X-ray crystal structure ([…] Å), soaked crystals; type: binding
T2 construct: gene serS
T2 sequence (W9BNU9 1-430): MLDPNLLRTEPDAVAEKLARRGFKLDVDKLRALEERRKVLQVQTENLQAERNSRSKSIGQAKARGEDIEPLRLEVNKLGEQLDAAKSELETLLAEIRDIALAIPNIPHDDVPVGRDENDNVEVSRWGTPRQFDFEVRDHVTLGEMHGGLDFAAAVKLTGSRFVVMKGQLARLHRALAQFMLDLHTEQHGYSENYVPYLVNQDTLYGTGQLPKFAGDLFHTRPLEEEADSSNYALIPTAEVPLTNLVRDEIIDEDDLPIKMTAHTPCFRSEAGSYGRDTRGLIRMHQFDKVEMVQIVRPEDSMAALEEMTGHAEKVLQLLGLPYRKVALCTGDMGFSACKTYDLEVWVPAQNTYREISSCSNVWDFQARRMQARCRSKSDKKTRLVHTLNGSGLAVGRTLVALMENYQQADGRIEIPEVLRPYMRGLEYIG

SerRS [2] = biological target: T3, SerRS (Escherichia coli, UniProt P0A8L1); test: radiolabel aminoacyl transfer assay, % inhibition at […]; type: biochemical
T3 construct: gene serS
T3 sequence (P0A8L1 whole entry): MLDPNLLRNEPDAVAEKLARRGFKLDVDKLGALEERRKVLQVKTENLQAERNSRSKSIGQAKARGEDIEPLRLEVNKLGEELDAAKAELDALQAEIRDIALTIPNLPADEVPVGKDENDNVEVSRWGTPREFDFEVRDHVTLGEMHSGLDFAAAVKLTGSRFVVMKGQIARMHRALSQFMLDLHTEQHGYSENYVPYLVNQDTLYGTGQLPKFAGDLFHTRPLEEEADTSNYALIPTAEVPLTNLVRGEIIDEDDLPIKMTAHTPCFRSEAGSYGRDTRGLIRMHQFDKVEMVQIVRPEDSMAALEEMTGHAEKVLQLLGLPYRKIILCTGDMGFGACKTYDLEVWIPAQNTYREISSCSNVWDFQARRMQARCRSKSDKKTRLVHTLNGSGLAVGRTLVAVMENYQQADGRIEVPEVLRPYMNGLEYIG

LeuRS [3] = biological target: T4, LeuRS (Neisseria gonorrhoeae, UniProt B4RNT1); test: X-ray crystal structure ([…] Å), soaked crystals; type: binding
T4 construct: gene leuS
T4 sequence (B4RNT1 whole entry): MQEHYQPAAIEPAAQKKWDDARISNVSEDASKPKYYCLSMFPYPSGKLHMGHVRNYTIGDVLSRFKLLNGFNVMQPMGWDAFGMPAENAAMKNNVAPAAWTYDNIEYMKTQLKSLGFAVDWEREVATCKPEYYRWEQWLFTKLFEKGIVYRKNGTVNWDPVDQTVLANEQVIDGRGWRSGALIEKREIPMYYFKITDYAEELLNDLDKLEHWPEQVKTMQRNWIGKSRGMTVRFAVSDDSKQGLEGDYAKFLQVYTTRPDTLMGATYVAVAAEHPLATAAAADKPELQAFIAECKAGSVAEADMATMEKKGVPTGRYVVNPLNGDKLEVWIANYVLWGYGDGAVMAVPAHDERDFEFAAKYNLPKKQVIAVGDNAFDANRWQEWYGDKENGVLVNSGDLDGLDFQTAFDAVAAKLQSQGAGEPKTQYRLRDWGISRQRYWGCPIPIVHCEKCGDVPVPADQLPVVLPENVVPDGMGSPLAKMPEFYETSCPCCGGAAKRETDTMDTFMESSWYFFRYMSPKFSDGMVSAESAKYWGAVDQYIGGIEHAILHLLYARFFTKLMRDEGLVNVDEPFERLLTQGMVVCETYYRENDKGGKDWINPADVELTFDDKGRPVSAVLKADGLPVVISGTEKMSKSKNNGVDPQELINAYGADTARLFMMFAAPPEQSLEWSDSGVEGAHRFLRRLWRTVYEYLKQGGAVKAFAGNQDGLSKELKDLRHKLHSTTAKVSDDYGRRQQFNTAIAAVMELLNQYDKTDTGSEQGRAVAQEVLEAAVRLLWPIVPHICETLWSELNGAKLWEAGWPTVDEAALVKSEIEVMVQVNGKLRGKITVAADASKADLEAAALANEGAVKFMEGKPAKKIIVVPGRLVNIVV

LeuRS [4] = biological target: T5, LeuRS (Escherichia coli, UniProt P07813); test: radiolabel aminoacyl transfer assay with purified enzyme (Kiapp); type: biochemical
T5 construct: gene leuS
T5 sequence (P07813 whole entry): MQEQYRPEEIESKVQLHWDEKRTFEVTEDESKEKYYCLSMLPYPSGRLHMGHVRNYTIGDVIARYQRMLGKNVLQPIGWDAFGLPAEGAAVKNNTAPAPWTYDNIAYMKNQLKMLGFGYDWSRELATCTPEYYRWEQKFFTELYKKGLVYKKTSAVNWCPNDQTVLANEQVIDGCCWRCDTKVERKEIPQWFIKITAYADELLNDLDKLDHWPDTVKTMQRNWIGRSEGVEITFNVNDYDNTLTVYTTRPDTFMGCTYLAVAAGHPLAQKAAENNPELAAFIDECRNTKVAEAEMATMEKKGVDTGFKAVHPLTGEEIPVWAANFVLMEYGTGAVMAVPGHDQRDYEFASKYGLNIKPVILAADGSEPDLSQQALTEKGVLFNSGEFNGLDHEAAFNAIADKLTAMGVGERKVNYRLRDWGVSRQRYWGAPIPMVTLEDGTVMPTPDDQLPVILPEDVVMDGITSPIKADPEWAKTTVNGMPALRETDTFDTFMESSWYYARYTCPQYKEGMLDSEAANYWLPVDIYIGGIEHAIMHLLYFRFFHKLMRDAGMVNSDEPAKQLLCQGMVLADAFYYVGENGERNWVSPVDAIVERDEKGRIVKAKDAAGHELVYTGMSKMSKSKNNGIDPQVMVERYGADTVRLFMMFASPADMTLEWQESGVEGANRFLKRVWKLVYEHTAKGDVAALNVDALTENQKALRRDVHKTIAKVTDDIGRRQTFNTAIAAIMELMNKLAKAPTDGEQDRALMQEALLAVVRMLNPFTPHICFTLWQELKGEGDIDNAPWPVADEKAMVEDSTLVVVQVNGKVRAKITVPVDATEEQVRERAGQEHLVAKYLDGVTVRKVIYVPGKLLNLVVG

AspRS = biological target: T6, AspRS (Thermus thermophilus, UniProt Q5SKD2); test: X-ray crystal structure ([…] Å), soaked crystals; type: binding
T6 construct: gene aspS1
T6 sequence (Q5SKD2 whole entry): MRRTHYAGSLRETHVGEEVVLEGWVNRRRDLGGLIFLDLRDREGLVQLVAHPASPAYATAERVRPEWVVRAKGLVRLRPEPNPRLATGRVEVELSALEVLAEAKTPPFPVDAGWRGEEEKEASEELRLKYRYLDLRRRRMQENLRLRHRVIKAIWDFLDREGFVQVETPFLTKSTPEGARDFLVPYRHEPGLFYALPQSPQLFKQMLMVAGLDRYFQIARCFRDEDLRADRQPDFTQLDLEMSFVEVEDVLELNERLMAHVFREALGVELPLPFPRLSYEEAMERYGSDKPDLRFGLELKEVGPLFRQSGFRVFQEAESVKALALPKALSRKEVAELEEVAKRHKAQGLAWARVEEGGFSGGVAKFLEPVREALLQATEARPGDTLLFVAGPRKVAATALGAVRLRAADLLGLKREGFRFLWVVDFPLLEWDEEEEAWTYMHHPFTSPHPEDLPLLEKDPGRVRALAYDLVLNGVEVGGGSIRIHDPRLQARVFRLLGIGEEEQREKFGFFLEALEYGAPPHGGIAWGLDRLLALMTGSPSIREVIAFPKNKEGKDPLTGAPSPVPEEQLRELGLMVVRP

IleRS = biological target: T7, IleRS (Escherichia coli, UniProt P00956); test: radiolabel aminoacyl transfer assay with purified enzyme (Kiapp); type: biochemical
T7 construct: gene ileS
T7 sequence (P00956 2-938): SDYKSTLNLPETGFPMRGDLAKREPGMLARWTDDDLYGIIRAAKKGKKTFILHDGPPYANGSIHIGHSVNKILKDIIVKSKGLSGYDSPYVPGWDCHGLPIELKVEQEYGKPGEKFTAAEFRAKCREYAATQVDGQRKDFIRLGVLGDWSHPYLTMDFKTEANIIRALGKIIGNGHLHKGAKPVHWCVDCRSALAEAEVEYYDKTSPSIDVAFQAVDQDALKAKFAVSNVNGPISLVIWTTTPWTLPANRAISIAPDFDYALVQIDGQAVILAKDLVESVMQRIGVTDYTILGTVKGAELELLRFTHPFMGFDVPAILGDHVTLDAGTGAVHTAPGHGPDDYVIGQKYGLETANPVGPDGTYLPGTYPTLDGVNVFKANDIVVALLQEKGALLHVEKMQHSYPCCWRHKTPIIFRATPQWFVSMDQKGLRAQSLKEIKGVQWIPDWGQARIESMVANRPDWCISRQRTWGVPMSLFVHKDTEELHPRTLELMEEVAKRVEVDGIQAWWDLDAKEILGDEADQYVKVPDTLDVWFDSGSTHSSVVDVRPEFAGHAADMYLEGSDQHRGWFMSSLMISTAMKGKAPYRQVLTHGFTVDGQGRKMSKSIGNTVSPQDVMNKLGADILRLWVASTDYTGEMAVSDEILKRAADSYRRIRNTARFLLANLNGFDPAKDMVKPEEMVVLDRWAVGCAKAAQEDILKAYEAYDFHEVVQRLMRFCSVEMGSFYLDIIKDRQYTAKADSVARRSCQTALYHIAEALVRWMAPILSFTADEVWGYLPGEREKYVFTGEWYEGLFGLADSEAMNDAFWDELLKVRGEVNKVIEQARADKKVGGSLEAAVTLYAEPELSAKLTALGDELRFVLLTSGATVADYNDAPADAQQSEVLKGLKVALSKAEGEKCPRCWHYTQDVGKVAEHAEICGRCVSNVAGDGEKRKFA

T1 sequence (P0AGJ9 2-424): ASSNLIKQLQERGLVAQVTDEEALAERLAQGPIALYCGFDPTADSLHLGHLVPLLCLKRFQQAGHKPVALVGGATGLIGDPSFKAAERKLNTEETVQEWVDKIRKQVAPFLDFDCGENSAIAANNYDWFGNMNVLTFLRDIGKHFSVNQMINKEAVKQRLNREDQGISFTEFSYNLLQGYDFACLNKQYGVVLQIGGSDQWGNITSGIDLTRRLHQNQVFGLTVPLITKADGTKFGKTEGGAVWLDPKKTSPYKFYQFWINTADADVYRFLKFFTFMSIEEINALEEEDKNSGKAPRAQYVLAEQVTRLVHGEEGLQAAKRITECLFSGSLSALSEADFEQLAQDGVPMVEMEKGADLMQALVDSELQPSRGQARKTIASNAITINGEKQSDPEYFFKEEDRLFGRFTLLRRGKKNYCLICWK

Compound `Nc1cc(CO)cc2ncn([C@@H]3O[C@H](COS(=O)(=O)NC(=O)[C@@H](N)Cc4ccc(O)cc4)[C@@H](O)C3O)c12` (stereo in doubt) [32b, (2R,3S,4S,5R)-(5-(7-Amino-5-(Hydroxymethyl)-1H-Benzo[d]imidazol-1-yl)-3,4-Dihydroxytetrahydrofuran-2-yl)methyl Tyrosylsulfamate] has a Ki (TyrRS) of 1230 ± 239 nM.

With `Nc1cc(CO)cc2ncn([C@@H]3O[C@H](COS(=O)(=O)NC(=O)[C@@H](N)CO)[C@@H](O)C3O)c12` (stereo in doubt) [32c, (2R,3S,4S,5R)-(5-(7-Amino-5-(Hydroxymethyl)-1H-Benzo[d]imidazol-1-yl)-3,4-Dihydroxytetrahydrofuran-2-yl)methyl Serylsulfamate] the “X-ray crystal structure (2.18 Å), soaked crystals” value (SerRS [1]) was “K. pneumoniae SerRS in complex with SerS7HMDDA” and the inhibition at 200 µM (SerRS [2]) was 54%.

In the case of `CC(C)C[C@H](N)C(=O)NS(=O)(=O)OC[C@H]1O[C@@H](n2cnc3cc(CO)cc(N)c32)C(O)[C@@H]1O` (stereo in doubt) [32e, (2R,3S,4S,5R)-(5-(7-Amino-5-(Hydroxymethyl)-1H-Benzo[d]imidazol-1-yl)-3,4-Dihydroxytetrahydrofuran-2-yl)methyl Leucylsulfamate], the “X-ray crystal structure (2.25 Å), soaked crystals” value (LeuRS [3]) is reported as “N. gonorrhoeae LeuRS in complex with LeuS7HMDDA” and the Ki (LeuRS [4]) is reported as 21.5 ± 1.2 nM.

With `Nc1cc(CO)cc2ncn([C@@H]3O[C@H](COS(=O)(=O)NC(=O)[C@@H](N)CC(=O)O)[C@@H](O)[C@H]3O)c12` [32d, 3-Amino-4-((((5-(7-Amino-5-(Hydroxymethyl)-1H-Benzo[d]imidazol-1-yl)-3,4-Dihydroxytetrahydrofuran-2-yl)methoxy)sulfonyl)amino)-4-Oxobutanoic Acid] the “X-ray crystal structure (2.15 Å), soaked crystals” value (AspRS) was “T. thermophilus AspRS in complex with AspS7HMDDA”.

For `CC[C@H](C)[C@H](N)C(=O)NS(=O)(=O)OC[C@H]1O[C@@H](n2cnc3cc(CO)cc(N)c32)[C@@H](O)[C@@H]1O` [32f, (2R,3S,4S,5R)-(5-(7-Amino-5-(Hydroxymethyl)-1H-Benzo[d]imidazol-1-yl)-3,4-Dihydroxytetrahydrofuran-2-yl)methyl Isoleucylsulfamate], the Ki (IleRS) was 10.8 ± 0.8 nM.
